Patent US20090081170A1, “Cardiac progenitor cells” (priority 2007, published 2009)

Assays:
infarcted mouse hearts = assay: Myocardial infarction model (coronary artery ligation) treated with Tβ4 or vehicle; assay type: in vivo
Description: For in vivo studies, Western blotting, immunofluorescence and immunohistochemistry were performed using standard protocols with the following antibodies: Ki67 (Dako Cytomation), SMαA, sarcomeric α-actinin (Sigma), cardiac myosin binding protein […]-1, CD4, CD8b (all BD Pharmingen), Nkx2.5, VEGF, Tie-2 (all Santa Cruz), GAPDH, Tbx18 (both Chemicon), Isl-1 (clone 39.4D5, Developmental Studies Hybridoma Bank), Tbx18, TNFα, IL-6, IL-10, GFP (full length-detects EYFP), MCP1, cTnT, F4/80, CD45, MPO, (all abcam), Living colours Av peptide, polyclonal and mouse monoclonal JL-8 antibodies (detect EYFP, Clontech) Cx43 (Zymed) and Raldh2 (gift of P. McCaffery). Images were acquired using either a Zeiss Axiolmager with ApoTome or a Zeiss LSM 510 confocal microscope equipped with argon and helium neon lasers using a 63×/1.4 lens. Adult heart samples post myocardial infarction (MI) were kindly provided by James Clark, Cardiovascular Division, King's College London, St. Thomas' Hospital. Briefly, MI was induced in anaesthetised C57B1/6 male mice by ligation of the left anterior descending coronary artery for 30 minutes, followed by reperfusion. Animals were sacrificed one hour, one day or one week post MI and protein extracts prepared in Laemmli buffer for Western blotting and immunoassay to determine levels of Tβ4 and AcSDKP, respectively. For in vivo studies, one hour after recovery, animals received intraperitoneal injection of Tβ4 (150 μg in 0.1 ml PBS) or vehicle (0.1 ml PBS) as previously reported. Further injections were given after 2 and 4 days and hearts were harvested after 2, 4 and 7 days following ligation and prepared for western analysis and histological sectioning, as described above. Infarcts with equivalent extent of injury in the left ventricle were assessed for immunofluorescence and cell counts. […] We next determined the presence of adult EPDC-derived cardiomyocytes in vivo, in both a gain of function (intact heart) mouse model, established by intraperitoneal injection of Tβ4 or vehicle (PBS) into wild type adult mice, and an injury model of myocardial infarctions (by coronary artery ligation) in adult mice (n=27 MIs in total), treated with either Tβ4 (n=13) or vehicle (n=14, injection regimen as for gain of function; refer to Methods). Hearts were assessed using a combination of western and immunofluorescence analyses for myocardial markers after 2, 4, 7, 14 and 28 days for the gain of function model and 2, 4 and 7 days for the injury model.

[1] = system: adult intact mouse hearts; assay: Gain of function model: Tβ4 administration to intact adult mice (western, immunofluorescence, perfused vessel counts); assay type: in vivo
Description: For in vivo studies, Western blotting, immunofluorescence and immunohistochemistry were performed using standard protocols with the following antibodies: Ki67 (Dako Cytomation), SMαA, sarcomeric α-actinin (Sigma), cardiac myosin binding protein C (E. Ehler), CD31/PECAM-1, CD4, CD8b (all BD Pharmingen), Nkx2.5, VEGF, Tie-2 (all Santa Cruz), GAPDH, Tbx18 (both Chemicon), Isl-1 (clone 39.4D5, Developmental Studies Hybridoma Bank), Tbx18, TNFα, IL-6, IL-10, GFP (full length—detects EYFP), MCP1, cTnT, F4/80, CD45, MPO, (all abcam), Living colours Av peptide, polyclonal and mouse monoclonal JL-8 antibodies (detect EYFP, Clontech) Cx43 (Zymed) and Raldh2 (gift of P. McCaffery). Images were acquired using either a Zeiss Axiolmager with ApoTome or a Zeiss LSM 510 confocal microscope equipped with argon and helium neon lasers using a 63×/1.4 lens.
Wild type (WT) C57B1/6 or Cx40-EGFP [46] male mice (25-30 g) received intraperitoneal injection of Tβ4 (150 μg in 0.1 ml PBS) or vehicle (0.1 ml PBS) every 2 days for up to 1 week or every 3 days for up to 4 weeks. Doses were based on previous studies. WT hearts were harvested after 2, 4, 7, 14 and 28 days and bisected transversely; the apex was snap frozen for protein preparation and the remaining tissue was fixed in 4% PFA for 2 hours for cryosectioning. Cx40-EGFP hearts were harvested after 7, 14 and 28 days and fixed, as above, for cryosectioning. Prior to harvest at the 28 d time point, Cx40-EGFP mice were intravenously injected with rhodamine-conjugated dextran (70 kDa, Invitrogen) at 2 mg per 20 g body weight, to assess coronary vessel perfusion.
The minimum requirement for Tβ4 to promote EPDC-derived vascular endothelial and smooth muscle cells, was reported previously. To investigate whether Tβ4 could stimulate new vessel growth in vivo, we established a gain of function mouse model by intraperitoneal injection of Tβ4 or vehicle (injections of 150 μg in 0.1 ml PBS every 2 days for first 4 days and every 3 days thereafter) into wild type 8 week old adult mice. Hearts were examined by western analysis and immunohistochemistry (IHC) for vascular markers and evidence of new coronaries at 2, 4, 7, 14 and 28 days post-treatment.
We next determined the presence of adult EPDC-derived cardiomyocytes in vivo, in both a gain of function (intact heart) mouse model, established by intraperitoneal injection of Tβ4 or vehicle (PBS) into wild type adult mice, and an injury model of myocardial infarctions (by coronary artery ligation) in adult mice (n=27 MIs in total), treated with either Tβ4

[2] = infarcted hearts, 2 days of treatment, n=3, 35 fields
[3] = intact heart, 2 days of treatment
[4] = intact heart, days 2-7 of treatment, 150 μg i.p.

Thymosin β4 [Tβ4]
TNF-α reduction vs vehicle (western) (infarcted mouse hearts; 2 days of treatment post-MI): 6.2 fold | IL-10 increase compared to control (western) (infarcted mouse hearts; 2 days post-MI): 8.1 fold | infarct area (Image J) (infarcted mouse hearts; 2 days post-MI, section through left ventricle wall): 0.292 mm^2 | increase in vessel area vs control (Image J) (infarcted mouse hearts; 7 days of treatment post-MI): 2 fold | vessel area/field (infarcted mouse hearts; 7 days of treatment post-MI, n=7): 10.67+/−0.55% | scar volume vs vehicle (trichrome) (infarcted mouse hearts; 7 days post MI): reduced scar volume | epicardial fibrosis, share of the epicardium affected (infarcted mouse hearts; 7 days post MI, trichrome): ≤ 20% | EPDC-derived (EYFP+) cardiomyocytes, % of total cardiomyocytes per field (infarcted mouse hearts; Gata5-EYFP mice, 7 days treatment post-MI): 14.1% | EYFP+ cardiomyocytes, mean number of positive cells/field +/−SEM (infarcted mouse hearts; Gata5-EYFP mice, 7 days treatment post-MI, n=6, 38 fields): 49.53+/−4.68 cells/field | Raldh2 up-regulation vs vehicle (western) (infarcted mouse hearts; d2 MI): 1.8 fold | Tbx18 up-regulation vs vehicle (western) (infarcted mouse hearts; d2 MI): 2.8 fold | infiltration of MPO+ neutrophils vs controls (infarcted mouse hearts; d2 and d4 post-MI): reduced infiltration | macrophages (F4/80+) vs vehicle (infarcted mouse hearts; d2 post MI): elevated | CD4:CD8 ratio (infarcted mouse hearts; d4 post-MI): 7.4 | CD4:CD8 ratio (infarcted mouse hearts; d7 post-MI): 10.8 | PECAM protein expression increase (western) (infarcted mouse hearts; d7 post-MI): 9.6 fold | SMαA protein expression increase (western) (infarcted mouse hearts; d7 post-MI): 8.3 fold | macrophages (F4/80+) vs vehicle (infarcted mouse hearts; d7 post-MI): reduced | fibroblast number (EYFP+/procollagen type I) vs control (infarcted mouse hearts; d7 post-MI, p=0.57): did not vary significantly | EYFP+ cardiomyocytes located in remote myocardium, % of total EYFP+ cardiomyocytes per field (infarcted mouse hearts; day 7 post-MI, left ventricle): 40% | EYFP+ cardiomyocytes proximal to the border zone, % of total EYFP+ cardiomyocytes per field (infarcted mouse hearts; day 7 post-MI, left ventricle): 58% | IL-6 reduction vs vehicle (western) (infarcted mouse hearts; early stages post-MI): 4.1 fold | MCP-1 up-regulation (western) (infarcted mouse hearts; early, d2 post-MI): 3.9 fold | proliferation of cells (Ki67) within the epicardium and subepicardial space (infarcted mouse hearts; following MI): increase in proliferation | Isl1 elevated levels (western) (infarcted mouse hearts; from 2 days post-MI onwards): 5.1 fold | Nkx2.5 elevated levels (western) (infarcted mouse hearts; from 2 days post-MI onwards): 1.9 fold | Raldh2+ mean number of positive cells per field +/−SEM (infarcted mouse hearts; [2]): 41.8+/−1.9 cells per field | Tbx18+ mean number of positive cells per field +/−SEM (infarcted mouse hearts; [2]): 36.1+/−3.1 cells per field | increase in number of endothelial (PECAM+) cells vs vehicle (infarcted mouse hearts; infarcted hearts, 4 days): 3.5 fold | PECAM+ number of cells per field +/−SEM (infarcted mouse hearts; infarcted hearts, 4 days, n=3): 150.33+/−10.94 cells per field | MCP-1 levels (in words) (infarcted mouse hearts; initial stages post-MI): significantly reduced levels | levels of MMP3 and -9 (infarcted mouse hearts; post MI): reduced levels | levels of TIMP1 and -2 (infarcted mouse hearts; post MI): without an effect | P-NFκB positive cells at the infarct border zone (infarcted mouse hearts; post-MI, immunostaining): reduced number | increase in numbers of perfused coronary vessels vs controls ([1]; Cx40-EGFP mice, rhodamine-dextran, 28 days of treatment): 1.2 fold | number of perfused vessels per section +/−SEM ([1]; Cx40-EGFP mice, rhodamine-dextran, 28 days of treatment, n=3): 70.7+/−3.62 | Raldh2 up-regulation vs vehicle (western) ([1]; gain of function, intact heart): 6.3 fold | Tbx18 up-regulation vs vehicle (western) ([1]; gain of function, intact heart): 5.3 fold | phospho-histone H3 (P-HH3) elevated levels (proliferation) ([1]; intact heart): 9.1 fold | PECAM increase vs controls (western) [1, 3]: 9.3 fold | SMαA increase vs controls (western) [1, 3]: 9.8 fold | Tie2 increase vs controls (western) [1, 3]: 2 fold | VEGF increase vs controls (western) [1, 3]: 4.8 fold | Isl-1 up-regulation vs vehicle (western) [1, 4]: 4.3 fold | Nkx2.5 up-regulation vs vehicle (western) [1, 4]: 2.7 fold
